The values that follow come from patent US20220324835A1 (Nurix Therapeutics, Inc., priority 2018, published 2022).

In one assay the target is Cbl-b (residues 36-427) (Homo sapiens, UniProt Q13191). Put plainly: Cbl-b binding assay (SPR, Biacore T200). The following applies: 20° C., 1:1 binding model. Here is the method: SPR data was collected on a Biacore T200 (GE Healthcare) using a NeutrAvidin (Invitrogen) capture surface that was generated on a polycarboxylate hydrogel sensor chip of medium charge density (XanTec Bioanalytics GmbH) at 20° C. The surface was prepared using 20 mM HEPES, pH 7.5, 100 mM NaCl, 0.5 mM TCEP, 0.01% Triton X-100 as the immobilization buffer. Neutravidin was coupled to the sensor chip through EDC/NHS amine coupling. All steps were performed using a flow rate of 10 μl/min. First, the chip was preconditioned with a 3-min injection of 1 M NaCl, 0.1 M Borate followed by a 10-min equilibration in immobilization buffer. The surface was activated by a 5-min injection of 100 mM EDC/50 mM NHS. Next, 250 μg/mL NeutrAvidin buffered in 10 mM sodium acetate buffer, pH 5.0 was injected over the surface for 2 min. The surface was deactivated with 1 M Tris, pH 8.5 for 7 min then re-equilibrated in immobilization buffer for 7 min. […] Flow cell 1 served as a reference surface and was prepared without protein. All binding measurements were made in 20 mM HEPES, pH 7.5, 100 mM NaCl, 0.5 mM TCEP, 0.01% Triton X-100, 2% DMSO (referred as assay buffer) at 20° C. Compounds, prepared in assay buffer, were diluted from atop concentration of either 100 μM or 50 μM using either a 2- or 3-fold dilution scheme containing 8 or 10 points. Samples were injected for 50 s at 50 μl/min. Dissociation time varied from 90-180 s, depending on anticipated potency. The surface was regenerated by injection of 0.3 M NaCl, prepared in assay buffer for 20 s at 10 μl/min. Positive and negative control samples were run between each compound to monitor surface integrity.
Chain of Cbl-b (residues 36-427) (Q13191 36-427): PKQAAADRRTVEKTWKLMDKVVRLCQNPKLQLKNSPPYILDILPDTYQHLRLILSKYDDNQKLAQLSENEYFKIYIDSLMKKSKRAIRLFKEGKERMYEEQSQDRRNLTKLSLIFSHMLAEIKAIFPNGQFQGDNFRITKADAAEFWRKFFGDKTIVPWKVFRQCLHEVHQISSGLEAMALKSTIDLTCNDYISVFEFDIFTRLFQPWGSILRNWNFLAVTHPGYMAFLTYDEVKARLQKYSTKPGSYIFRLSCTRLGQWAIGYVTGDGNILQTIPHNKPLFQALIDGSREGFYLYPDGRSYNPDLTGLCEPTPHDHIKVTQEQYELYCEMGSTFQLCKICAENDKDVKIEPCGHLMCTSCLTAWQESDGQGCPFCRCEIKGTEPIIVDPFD
Column marked with an asterisk (*) were tested as described above with assay buffer containing 50 mM NaCl instead of 100 mM NaCl and 30 nM Src kinase instead of 60 nM Src kinase. The resulting data for the Cbl-b binding assay was solvent corrected and double referenced prior to analysis. All data were globally fit to a steady-state affinity and kinetic binding model where applicable). Fit parameters were derived from a 1:1 binding model using the Biacore T200 Evaluation Software V2.0 (GE Healthcare) (Table 2).
(In general: Surface plasmon resonance follows binding to a sensor surface in real time, without labels.)

Assay [1] deals with T1, Cbl-b (Homo sapiens, UniProt Q13191). Put plainly: Cbl-b inhibition assay (Cbl-b activity assay, FRET, Biological Example 1; 100 mM NaCl, 60 nM Src kinase). The following applies: upper bound stated in text lists; read-out: IC50 values in the Cbl-b inhibition assay of Biological Example 1. Type of assay: biochemical. Summed up:
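FRET read-out: loss of signal marks inhibition. Mix = biotin-Avi-Cbl-b (N-term), Src kinase, UbcH5B-Ub(Bodipy-FL, irreversible conjugate), streptavidin-Tb, assay buffer.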

The target in assay [2] is T1, Cbl-b. Put plainly: Cbl-b activity assay (Cbl-b inhibition assay), TR-FRET of Cbl-b interaction with UbcH5B-Ub. Type of assay: biochemical. The conditions noted are these: for IC50: * assay buffer containing 50 mM NaCl instead of 100 mM NaCl and 30 nM Src kinase instead of 60 nM, read-out: Cbl-b activity IC50 (μM)*; for pIC50: assay buffer with 100 mM NaCl, 60 nM Src kinase, read-out: Cbl-b activity IC50. Summed up: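 UbcH5B (C85K) conjugated to N-terminally Bodipy-Fluorescein-labeled ubiquitin served as the fluorescent partner. After compound preincubation, Src kinase (60 nM) with 1 mM ATP and 5 mM MgCl2 (final) was added for 1.5 h, followed by a further 1 h incubation. Some values were obtained with 50 mM NaCl and 30 nM Src.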
A general note: Time-resolved FRET reads energy transfer from a long-lived donor to a nearby acceptor.

pIC50, pKd: −log10 of the molar value.

T1 sequence (Q13191 36-427): as above

As a reminder, the pKd is −log10 of the Kd, conventionally taken in molar units. Lower therefore signals a high Kd. In general, pIC50 refers to the negative decadic logarithm of the IC50, by convention in mol/L. As a reminder, the IC50 is the concentration needed to halve the response being measured. The molecule `CC(Sc1nncn1C)c1cccc(NC(=O)c2ccc3c(n2)CCCC3)c1` (stereo not shown) [Compound 23, N-(3-(1-((4-Methyl-4H-1,2,4-triazol-3-yl)thio)ethyl)phenyl)-5,6,7,8-tetrahydroquinoline-2-carboxamide] gave a pKd on Cbl-b (residues 36-427) of 5.00 to 5.52. The pIC50 at Cbl-b [1] is not below 5.00. On Cbl-b [2], the IC50 is 1 to 3 µM and the pIC50 was 5.52 to 6.00.

`Cc1cc(C(=O)Nc2cccc([C@H](C)Sc3nncn3C)c2)ncc1Cl` [Compound 34, (S)-5-Chloro-4-methyl-N-(3-(1-((4-methyl-4H-1,2,4-triazol-3-yl)thio)ethyl)phenyl)picolinamide] had a pKd at Cbl-b (residues 36-427) of 5.52 to 6.00. For the same molecule, on Cbl-b [1], the pIC50 was not below 6.30. Further, at Cbl-b [2], the half-inhibitory concentration (IC50) fell in the range of 0.301 to 1 µM and the pIC50 is 6.00 to 6.52.

In the case of `C[C@H](Sc1nncn1C)c1cccc(NC(=O)c2cc(C(F)(F)F)c(Cl)cn2)c1` [Compound 40, (S)-5-Chloro-N-(3-(1-((4-methyl-4H-1,2,4-triazol-3-yl)thio)ethyl)phenyl)-4-(trifluoromethyl)picolinamide], the negative-log Kd (pKd) at Cbl-b (residues 36-427) was 5.00 to 5.52. Also, the pIC50 on Cbl-b [1] is not below 5.00. Besides, on Cbl-b [2], the IC50 was 3 to 10 µM and the pIC50 was 5.52 to 6.00.

`Cc1nc(C(=O)Nc2cccc([C@H](C)Sc3nncn3C)c2)cs1` [Compound 41, (S)-2-Methyl-N-(3-(1-((4-methyl-4H-1,2,4-triazol-3-yl)thio)ethyl)phenyl)thiazole-4-carboxamide] gave a pKd at Cbl-b (residues 36-427) of 5.52 to 6.00. Besides, the pIC50 was not below 5.00 on Cbl-b [1] and 5.52 to 6.00 at Cbl-b [2].

Molecule `C[C@H](Sc1nncn1C)c1cccc(NC(=O)c2cccc(C(F)(F)F)c2F)c1` [Compound 42, (S)-2-Fluoro-N-(3-(1-((4-methyl-4H-1,2,4-triazol-3-yl)thio)ethyl)phenyl)-3-(trifluoromethyl)benzamide] had a pKd at Cbl-b (residues 36-427) of 6.00 to 6.52. The negative logarithm of the IC50 (pIC50) on Cbl-b [1] was not below 6.00; at Cbl-b [2], 6.00 to 6.52.

The molecule `COc1c(C(=O)Nc2cccc([C@H](C)Sc3nncn3C)c2)cccc1C(F)(F)F` [Compound 43, (S)-2-Methoxy-N-(3-(1-((4-methyl-4H-1,2,4-triazol-3-yl)thio)ethyl)phenyl)-3-(trifluoromethyl)benzamide] gave a pKd on Cbl-b (residues 36-427) of less than 5.00. Also, the values for the pIC50 on Cbl-b [1] and at Cbl-b [2] were not below 5.00 and 5.00 to 5.52, respectively.

The molecule `C[C@H](Sc1nncn1C)c1cccc(NC(=O)c2cccc(-c3ccn[nH]3)c2)c1` [Compound 44, (S)-N-(3-(1-((4-Methyl-4H-1,2,4-triazol-3-yl)thio)ethyl)phenyl)-3-(1H-pyrazol-5-yl)benzamide] showed a pKd on Cbl-b (residues 36-427) of 5.00 to 5.52. Also, the figures for the pIC50 on Cbl-b [1] and on Cbl-b [2] were not below 5.00 and 5.00 to 5.52, respectively.

In turn, `C[C@H](Sc1nncn1C)c1cccc(NC(=O)c2cccc(-c3ccnn3C)c2)c1` [Compound 45, 3-(1-Methyl-1H-pyrazol-5-yl)-N-[3-[(1S)-1-[(4-methyl-4H-1,2,4-triazol-3-yl)sulfanyl]ethyl]phenyl]benzamide] gave a pKd at Cbl-b (residues 36-427) of 5.00 to 5.52. The negative logarithm of the IC50 (pIC50) at Cbl-b [1] was not below 5.00; on Cbl-b [2], 5.00 to 5.52.

On Cbl-b (residues 36-427), `C[C@H](Sc1nncn1C)c1cccc(NC(=O)c2cc(CCO)ccn2)c1` [Compound 46, (S)-4-(2-Hydroxyethyl)-N-(3-(1-((4-methyl-4H-1,2,4-triazol-3-yl)thio)ethyl)phenyl)picolinamide] gave a pKd of 5.00 to 5.52. In addition, the pIC50 is not below 5.00 at Cbl-b [1] and 5.52 to 6.00 at Cbl-b [2].

At Cbl-b (residues 36-427), `CNc1cccc(C(=O)Nc2cccc([C@H](C)Sc3nncn3C)c2)c1` [Compound 47, (S)-N-(3-(1-((4-Methyl-4H-1,2,4-triazol-3-yl)thio)ethyl)phenyl)-3-(methylamino)benzamide] had a pKd of 5.00 to 5.52. The values for the pIC50 on Cbl-b [1] and at Cbl-b [2] were not below 5.00 and 5.00 to 5.52, respectively.

Molecule `C[C@H](Sc1nncn1C)c1cccc(NC(=O)c2nc(C(F)(F)F)ccc2N)c1` [Compound 49, (S)-3-Amino-N-(3-(1-((4-methyl-4H-1,2,4-triazol-3-yl)thio)ethyl)phenyl)-6-(trifluoromethyl)picolinamide] had a pKd at Cbl-b (residues 36-427) of 5.52 to 6.00. For the same molecule, the pIC50 is not below 5.00 on Cbl-b [1] and 5.52 to 6.00 at Cbl-b [2].

The molecule `Cc1cc(C(=O)Nc2cccc([C@H](C)Sc3nncn3C)c2)[nH]c(=O)c1` [Compound 50, (S)-4-Methyl-N-(3-(1-((4-methyl-4H-1,2,4-triazol-3-yl)thio)ethyl)phenyl)-6-oxo-1,6-dihydropyridine-2-carboxamide] showed a pKd on Cbl-b (residues 36-427) of less than 5.00. Besides, the pIC50 was not below 5.00 on Cbl-b [1] and 5.00 to 5.52 at Cbl-b [2].

As to `Cc1cnc(C(=O)Nc2cccc([C@H](C)Sc3nncn3C)c2)cc1C(F)(F)F` [Compound 52, (S)-5-methyl-N-(3-(1-((4-methyl-4H-1,2,4-triazol-3-yl)thio)ethyl)phenyl)-4-(trifluoromethyl)picolinamide], the negative logarithm of the Kd (pKd) on Cbl-b (residues 36-427) was less than 5.00. The pIC50 at Cbl-b [1] is not below 5.00; on Cbl-b [2] it was 5.00 to 5.52.

On to `Cc1cnc(C(=O)Nc2cccc([C@H](C)Sc3nncn3C)c2)cc1C1CC1` [Compound 53, (S)-4-cyclopropyl-5-methyl-N-(3-(1-((4-methyl-4H-1,2,4-triazol-3-yl)thio)ethyl)phenyl)picolinamide], for which, on Cbl-b (residues 36-427), the pKd was 5.00 to 5.52. Also, the figures for the pIC50 at Cbl-b [1] and on Cbl-b [2] were not below 5.00 and 5.00 to 5.52, respectively.

For `CC(=O)Nc1ccnc(C(=O)Nc2cccc([C@H](C)Sc3nncn3C)c2)c1` [Compound 59, (S)-4-acetamido-N-(3-(1-((4-methyl-4H-1,2,4-triazol-3-yl)thio)ethyl)phenyl)picolinamide], the pKd at Cbl-b (residues 36-427) was 5.00 to 5.52. Also, the pIC50 at Cbl-b [1] is not below 5.00; at Cbl-b [2], 5.52 to 6.00.

Molecule `CNc1ccnc(C(=O)Nc2cccc([C@H](C)Sc3nncn3C)c2)c1` [Compound 60, (S)-N-(3-(1-((4-methyl-4H-1,2,4-triazol-3-yl)thio)ethyl)phenyl)-4-(methylamino)picolinamide] gave a pKd at Cbl-b (residues 36-427) of 5.00 to 5.52. In addition, the pIC50 at Cbl-b [1] is not below 5.00; on Cbl-b [2] it was 5.52 to 6.00.

Regarding `C[C@H](Sc1nncn1C)c1cccc(NC(=O)c2cc3cc(OCC(=O)O)ccc3cn2)c1` [Compound 305, (S)-2-((3-((3-(1-((4-methyl-4H-1,2,4-triazol-3-yl)thio)ethyl)phenyl)-carbamoyl)isoquinolin-6-yl)oxy)acetic acid], the pKd at Cbl-b (residues 36-427) is less than 5.00. The pIC50 on Cbl-b [2] was 6.00 to 6.52.

With `CNC(=O)COc1ccc2cnc(C(=O)Nc3cccc([C@@H](C)Sc4nncn4C)c3)cc2c1` [Compound 306b, (R)-N-(3-(1-(4-methyl-4H-1,2,4-triazol-3-ylthio)ethyl)phenyl)-6-(2-(methylamino)-2-oxoethoxy)isoquinoline-3-carboxamide], the pKd at Cbl-b (residues 36-427) is 5.00 to 5.52. Moreover, the pIC50 on Cbl-b [2] is 5.00 to 5.52.

For `C[C@H](Sc1nncn1C)c1cccc(NC(=O)c2cc3ccc(OCC(=O)O)cc3cn2)c1` [Compound 308, (S)-2-((3-((3-(1-((4-methyl-4H-1,2,4-triazol-3-yl)thio)ethyl)phenyl)carbamoyl)isoquinolin-7-yl)oxy)acetic acid], the pKd at Cbl-b (residues 36-427) is 5.00 to 5.52. In addition, the pIC50 at Cbl-b [2] was 5.52 to 6.00.

As for `C[C@H](Sc1nncn1C)c1cccc(NC(=O)c2ccc3c(OCC(=O)O)cccc3n2)c1` [Compound 309, (S)-2-(2-(3-(1-(4-methyl-4H-1,2,4-triazol-3-ylthio)ethyl)phenylcarbamoyl)quinolin-5-yloxy)acetic acid], the pKd at Cbl-b (residues 36-427) was 5.00 to 5.52. Also, the pIC50 on Cbl-b [2] is 5.52 to 6.00.

In the case of `CNC(=O)COc1cccc2nc(C(=O)Nc3cccc([C@H](C)Sc4nncn4C)c3)ccc12` [Compound 310, (S)-N-(3-(1-((4-methyl-4H-1,2,4-triazol-3-yl)thio)ethyl)phenyl)-5-(2-(methylamino)-2-oxoethoxy)quinoline-2-carboxamide], the negative-log Kd (pKd) at Cbl-b (residues 36-427) was 6.00 to 6.52. Besides, the pIC50 on Cbl-b [2] was 6.00 to 6.52.
